The record followed here is US9370587B2, “Coloring substance for diagnostic ophtalmologic use” (IROS R.C. S.r.l., priority 2012, dated 2016).

Molecules are shown by their SMILES. Entries after “also recorded” stand apart in the source; their conditions may differ.

Series [1] can be described thus: Tolerability of topical use on the eye. Format: in vivo, human. Conditions: topical ocular use.
The test system of the next series is epithelial cells. Put plainly: Staining behaviour on tear film and corneal epithelial cells.

`Cc1cc2nc3c(=O)[nH]c(=O)nc-3n(C[C@H](O)[C@H](O)[C@H](O)CO)c2cc1C` [riboflavin]: the “harmfulness / side effects on the eye” value in series [1] is “not harmful to the human eye; also recorded: side no effects; also recorded: absence of toxic effects on the corneal epithelium”. Moreover, in the series with epithelial cells, the penetration into cells entry is on record as “does not penetrate into the cells”.
